Values of other authors, collected in patent publication US12447051B2, “Multi-functional analgesic-releasing wound dressing” (University of Utah Research Foundation, priority 2020, dated 2025).

Key:
[1] = test system: Primary human dermal fibroblast cell cultures; conditions: bupivacaine concentration of the extracts

Molecule	cytotoxic threshold [1]	in vivo degradation
CCCCN1CCCCC1C(=O)Nc1c(C)cccc1C (centres unmarked) [bupivacaine]	0.5 % w/w	
poly(lactide-co-caprolactone) [PLC]		greater than 6 months
